# ChEMBL document CHEMBL4376829, “Discovery and biological evaluation of vinylsulfonamide derivatives as highly potent, covalent TEAD autopalmitoylation inhibitors” (Eur J Med Chem, 2019)
# Calls of active or inactive are those of the source. The calls are words filed in the database; no cut-off is given here.
# How the values were obtained:
# [1] = biological target: Histone-lysine N-methyltransferase SETD7 (Homo sapiens) (UniProt Q8WTS6); assay: Inhibition of human SET7 at 10 uM relative to control
# [2] = biological target: Leucine-rich repeat serine/threonine-protein kinase 2 (Homo sapiens) (UniProt Q5S007); assay: Inhibition of recombinant human LRRK2 (970 to end residues) at 10 uM using RLGRDKYKTLRQIRQ as substrate measured after 40 mins in presence of [gamma33P]ATP by scintillation counting method relative to control
# [3] = biological target: T1, Transcriptional enhancer factor TEF-3 (Homo sapiens, UniProt Q15561); assay: Inhibition of FITC-labeled YAP peptide (61 to 100 residues) binding to TEAD4 (unknown origin) preincubated for 1 hr followed by FITC-labeled YAP peptide addition and measured after 30 mins by fluorescence polarization assay
# T1 sequence (Q15561 whole entry, the tested form may be a part): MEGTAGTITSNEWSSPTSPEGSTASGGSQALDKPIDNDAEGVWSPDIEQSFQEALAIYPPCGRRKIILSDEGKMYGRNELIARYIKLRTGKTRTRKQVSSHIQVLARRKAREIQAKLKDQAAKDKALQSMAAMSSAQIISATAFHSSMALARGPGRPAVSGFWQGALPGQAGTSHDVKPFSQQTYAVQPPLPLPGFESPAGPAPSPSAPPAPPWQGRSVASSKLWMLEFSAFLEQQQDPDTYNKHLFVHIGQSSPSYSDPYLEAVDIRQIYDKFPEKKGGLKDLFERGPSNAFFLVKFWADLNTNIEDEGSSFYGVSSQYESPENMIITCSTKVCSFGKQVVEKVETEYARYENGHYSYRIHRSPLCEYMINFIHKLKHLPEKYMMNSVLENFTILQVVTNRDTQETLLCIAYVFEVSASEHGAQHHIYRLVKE
# [4] = biological target: Mitogen-activated protein kinase kinase kinase 5 (Homo sapiens) (UniProt Q99683); assay: Inhibition of recombinant human ASK1 (649 to 946 residues) at 10 uM using myelin basic protein as substrate measured after 40 mins in presence of [gamma33P]ATP by scintillation counting method relative to control
# [5] = biological target: LIM domain kinase 1 (Homo sapiens) (UniProt P53667); assay: Inhibition of recombinant human LIMK1 (285 to 638 residues) at 10 uM using cofilin as substrate measured after 40 mins in presence of [gamm33P]ATP by scintillation counting method relative to control
# LIM domain kinase 1 (Homo sapiens), sequence (P53667 whole entry, looked up, the tested form may be a part): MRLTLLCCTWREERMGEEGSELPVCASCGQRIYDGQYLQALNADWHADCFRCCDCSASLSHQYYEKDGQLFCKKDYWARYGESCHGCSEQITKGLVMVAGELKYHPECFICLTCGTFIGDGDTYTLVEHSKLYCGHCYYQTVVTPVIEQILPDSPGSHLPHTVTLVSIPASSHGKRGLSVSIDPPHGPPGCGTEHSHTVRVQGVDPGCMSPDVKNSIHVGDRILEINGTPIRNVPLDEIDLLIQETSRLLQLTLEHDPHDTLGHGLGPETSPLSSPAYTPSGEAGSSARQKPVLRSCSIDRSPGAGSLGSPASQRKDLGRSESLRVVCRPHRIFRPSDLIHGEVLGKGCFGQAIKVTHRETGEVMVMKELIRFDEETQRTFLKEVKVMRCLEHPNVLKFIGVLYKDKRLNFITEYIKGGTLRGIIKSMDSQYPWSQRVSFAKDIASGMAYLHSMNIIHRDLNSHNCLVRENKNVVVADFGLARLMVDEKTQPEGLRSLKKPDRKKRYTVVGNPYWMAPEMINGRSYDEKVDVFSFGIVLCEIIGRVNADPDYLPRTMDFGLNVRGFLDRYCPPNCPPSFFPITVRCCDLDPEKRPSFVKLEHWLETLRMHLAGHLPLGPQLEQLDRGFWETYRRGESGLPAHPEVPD
# [6] = biological target: Transcription initiation factor TFIID subunit 1-like (Homo sapiens) (UniProt Q8IZX4); assay: Inhibition of recombinant human TAF1L (1428 to end residues) at 10 uM using RRRFRPASPLRGPPK as substrate measured after 120 mins in presence of [gamma33P]ATP by scintillation counting method relative to control
# Transcription initiation factor TFIID subunit 1-like (Homo sapiens), sequence (Q8IZX4 whole entry, the tested form may be a part): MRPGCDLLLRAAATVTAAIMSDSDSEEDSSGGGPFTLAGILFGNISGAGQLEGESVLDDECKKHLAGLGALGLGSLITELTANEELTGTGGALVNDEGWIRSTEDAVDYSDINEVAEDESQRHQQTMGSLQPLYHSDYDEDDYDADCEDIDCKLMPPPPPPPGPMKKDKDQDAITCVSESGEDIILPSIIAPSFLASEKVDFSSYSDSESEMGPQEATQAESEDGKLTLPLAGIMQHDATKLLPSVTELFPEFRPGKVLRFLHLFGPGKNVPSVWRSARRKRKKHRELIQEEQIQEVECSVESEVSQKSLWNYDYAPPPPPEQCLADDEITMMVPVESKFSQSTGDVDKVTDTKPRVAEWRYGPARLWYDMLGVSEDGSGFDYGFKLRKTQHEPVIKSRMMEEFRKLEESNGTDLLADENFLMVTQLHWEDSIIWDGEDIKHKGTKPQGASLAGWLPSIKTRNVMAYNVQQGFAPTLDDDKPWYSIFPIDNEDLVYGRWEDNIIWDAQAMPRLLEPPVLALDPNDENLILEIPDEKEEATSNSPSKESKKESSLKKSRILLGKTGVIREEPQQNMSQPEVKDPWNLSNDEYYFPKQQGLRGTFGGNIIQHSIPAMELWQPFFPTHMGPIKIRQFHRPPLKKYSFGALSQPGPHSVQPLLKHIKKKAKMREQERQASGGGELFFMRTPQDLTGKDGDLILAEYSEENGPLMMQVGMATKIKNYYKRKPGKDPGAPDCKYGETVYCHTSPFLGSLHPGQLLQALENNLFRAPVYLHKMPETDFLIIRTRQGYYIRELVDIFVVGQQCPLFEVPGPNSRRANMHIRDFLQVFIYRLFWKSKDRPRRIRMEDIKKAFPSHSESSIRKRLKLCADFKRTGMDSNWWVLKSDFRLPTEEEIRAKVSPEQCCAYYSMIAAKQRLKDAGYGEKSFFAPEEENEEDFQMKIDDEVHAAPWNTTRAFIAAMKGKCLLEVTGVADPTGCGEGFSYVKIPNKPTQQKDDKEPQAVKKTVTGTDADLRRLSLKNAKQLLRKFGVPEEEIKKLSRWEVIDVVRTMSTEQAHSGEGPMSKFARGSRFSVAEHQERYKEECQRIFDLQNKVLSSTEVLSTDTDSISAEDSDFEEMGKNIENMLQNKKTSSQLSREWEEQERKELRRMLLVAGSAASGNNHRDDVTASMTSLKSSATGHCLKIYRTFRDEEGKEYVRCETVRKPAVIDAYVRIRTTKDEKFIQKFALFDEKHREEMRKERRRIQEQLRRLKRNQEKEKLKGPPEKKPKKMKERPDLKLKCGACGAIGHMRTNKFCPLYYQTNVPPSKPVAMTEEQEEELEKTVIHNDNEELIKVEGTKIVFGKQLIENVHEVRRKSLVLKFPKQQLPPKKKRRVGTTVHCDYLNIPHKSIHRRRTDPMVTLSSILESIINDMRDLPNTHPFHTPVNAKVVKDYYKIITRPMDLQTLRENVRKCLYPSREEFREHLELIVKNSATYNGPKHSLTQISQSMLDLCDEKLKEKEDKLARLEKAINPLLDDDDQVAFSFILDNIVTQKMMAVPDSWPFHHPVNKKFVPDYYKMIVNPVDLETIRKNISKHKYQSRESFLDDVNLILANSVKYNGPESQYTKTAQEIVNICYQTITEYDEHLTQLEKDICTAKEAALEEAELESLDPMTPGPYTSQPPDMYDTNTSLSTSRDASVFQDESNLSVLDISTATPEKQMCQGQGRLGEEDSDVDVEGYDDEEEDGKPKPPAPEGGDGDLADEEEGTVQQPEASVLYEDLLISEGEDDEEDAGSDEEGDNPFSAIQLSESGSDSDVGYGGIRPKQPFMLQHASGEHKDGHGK
# [7] = biological target: Serine/threonine-protein kinase 26 (Homo sapiens) (UniProt Q9P289); assay: Inhibition of recombinant human MST4 (4 to 304 residues) at 10 uM using RLGRDKYKTLRQIRQ as substrate measured after 40 mins in presence of [gamma33P]ATP by scintillation counting method relative to control
# [8] = test system: Ribosomal protein S6 kinase beta-1 (Homo sapiens), P23443 [T412E]; assay: Inhibition of recombinant human p70S6K T412E mutant (1 to 421 residues) at 10 uM using KKRNRTLTV as substrate measured after 40 mins in presence of [gamma33P]ATP by scintillation counting method relative to control
# Ribosomal protein S6 kinase beta-1 (Homo sapiens), P23443 [T412E], sequence (P23443 whole entry T412E, looked up, the tested form may be a part): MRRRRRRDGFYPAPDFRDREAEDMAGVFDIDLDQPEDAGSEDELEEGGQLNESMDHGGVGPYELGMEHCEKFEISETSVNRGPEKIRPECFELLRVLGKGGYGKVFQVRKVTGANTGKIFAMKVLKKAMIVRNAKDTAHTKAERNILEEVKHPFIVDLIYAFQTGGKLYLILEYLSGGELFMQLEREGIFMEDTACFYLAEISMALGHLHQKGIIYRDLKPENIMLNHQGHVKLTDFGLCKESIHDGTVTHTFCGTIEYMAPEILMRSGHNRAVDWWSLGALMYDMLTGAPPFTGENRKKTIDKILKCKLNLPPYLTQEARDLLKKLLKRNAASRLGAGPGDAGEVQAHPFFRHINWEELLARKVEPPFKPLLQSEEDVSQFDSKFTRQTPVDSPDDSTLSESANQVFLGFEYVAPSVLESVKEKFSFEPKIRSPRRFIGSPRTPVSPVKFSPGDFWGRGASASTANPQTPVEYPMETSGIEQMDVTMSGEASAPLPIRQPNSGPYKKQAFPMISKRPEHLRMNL
# [9] = biological target: Leukocyte tyrosine kinase receptor (Homo sapiens) (UniProt P29376); assay: Inhibition of recombinant human LTK (450 to end residues) at 10 uM using GEEPLYWSFPAKKK as substrate measured after 40 mins in presence of [gamma33P]ATP by scintillation counting method relative to control
# Leukocyte tyrosine kinase receptor (Homo sapiens), sequence (P29376 whole entry): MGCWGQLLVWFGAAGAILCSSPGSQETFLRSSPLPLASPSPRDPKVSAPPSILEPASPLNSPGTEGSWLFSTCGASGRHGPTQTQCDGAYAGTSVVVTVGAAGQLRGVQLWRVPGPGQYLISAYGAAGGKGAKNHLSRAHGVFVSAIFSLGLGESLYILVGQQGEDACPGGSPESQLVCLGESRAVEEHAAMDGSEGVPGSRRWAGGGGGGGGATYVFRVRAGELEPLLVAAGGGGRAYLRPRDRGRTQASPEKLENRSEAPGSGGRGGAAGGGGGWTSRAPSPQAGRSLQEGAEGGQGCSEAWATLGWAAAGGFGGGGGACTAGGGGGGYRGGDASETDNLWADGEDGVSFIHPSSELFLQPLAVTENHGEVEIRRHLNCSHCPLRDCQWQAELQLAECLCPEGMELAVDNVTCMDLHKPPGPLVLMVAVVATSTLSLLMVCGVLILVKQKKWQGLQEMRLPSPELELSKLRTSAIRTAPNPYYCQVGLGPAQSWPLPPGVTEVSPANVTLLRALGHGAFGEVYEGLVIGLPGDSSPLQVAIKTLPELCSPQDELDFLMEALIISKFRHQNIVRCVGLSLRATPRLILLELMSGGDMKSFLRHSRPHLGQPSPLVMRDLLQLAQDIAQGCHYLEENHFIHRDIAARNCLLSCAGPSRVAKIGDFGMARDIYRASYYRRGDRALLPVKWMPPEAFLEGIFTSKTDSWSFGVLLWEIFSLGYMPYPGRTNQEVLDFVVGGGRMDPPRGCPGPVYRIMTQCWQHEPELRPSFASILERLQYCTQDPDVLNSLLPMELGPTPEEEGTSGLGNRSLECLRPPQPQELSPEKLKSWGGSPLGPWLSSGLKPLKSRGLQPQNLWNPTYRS
# [10] = biological target: Histone acetyltransferase KAT6A (Homo sapiens) (UniProt Q92794); assay: Inhibition of human MOZ at 10 uM relative to control
# [11] = biological target: Serine/threonine-protein kinase TAO2 (Homo sapiens) (UniProt Q9UL54); assay: Inhibition of recombinant human TAO2 (1 to 320 residues) at 10 uM using myelin basic protein as substrate measured after 40 mins in presence of [gamm33P]ATP by scintillation counting method relative to control
# [12] = biological target: Proto-oncogene tyrosine-protein kinase Src (Homo sapiens) (UniProt P12931); assay: Inhibition of recombinant full length human cSRC at 10 uM using KVEKIGEGTYGVVYK as substrate measured after 40 mins in presence of [gamma33P]ATP by scintillation counting method relative to control
# Proto-oncogene tyrosine-protein kinase Src (Homo sapiens), sequence (P12931 2-536 limits assumed): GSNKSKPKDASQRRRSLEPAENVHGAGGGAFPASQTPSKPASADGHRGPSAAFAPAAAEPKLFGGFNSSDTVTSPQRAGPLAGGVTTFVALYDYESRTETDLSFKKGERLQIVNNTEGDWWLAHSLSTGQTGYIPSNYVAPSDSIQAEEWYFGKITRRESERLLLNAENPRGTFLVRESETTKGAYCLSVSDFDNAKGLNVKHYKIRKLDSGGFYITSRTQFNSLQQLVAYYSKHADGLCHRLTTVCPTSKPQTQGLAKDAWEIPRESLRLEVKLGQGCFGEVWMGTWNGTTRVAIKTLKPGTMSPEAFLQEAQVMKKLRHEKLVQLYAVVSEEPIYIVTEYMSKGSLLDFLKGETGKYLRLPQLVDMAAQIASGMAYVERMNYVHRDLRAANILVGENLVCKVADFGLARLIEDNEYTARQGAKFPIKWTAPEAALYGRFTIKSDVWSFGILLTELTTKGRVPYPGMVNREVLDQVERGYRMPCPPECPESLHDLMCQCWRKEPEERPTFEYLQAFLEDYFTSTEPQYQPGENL
# [13] = biological target: CDK12/Cyclin K (Homo sapiens) (UniProt O75909+Q9NYV4); assay: Inhibition of full-length recombinant human CDK12/cyclinK at 10 uM using RSRSRSRSRSRSRSR as substrate after 40 mins by in presence of [gamma33P]ATP by scintillation counting method relative to control; format: protein-complex assay
# [14] = biological target: Serine/threonine-protein kinase pim-2 (Homo sapiens) (UniProt Q9P1W9); assay: Inhibition of recombinant human PIM2 (2 to end residues) at 10 uM using RSRHSSYPAGT as substrate measured after 40 mins in presence of [gamma33P]ATP by scintillation counting method relative to control
# [15] = biological target: T1, Transcriptional enhancer factor TEF-3; assay: Binding affinity to N-terminal His6 tagged human TEAD4-YBD (217 to 434 residues) expressed in Escherichia coli C43 (DE3) cells assessed as covalent modification at Cys367 residue by HPLC-MS/MS analysis
# [16] = biological target: Serine/threonine-protein kinase ULK2 (Homo sapiens) (UniProt Q8IYT8); assay: Inhibition of recombinant human ULK2 (1 to 306 residues) at 10 uM using casein as substrate measured after 40 mins in presence of [gamm33P]ATP by scintillation counting method relative to control
# [17] = biological target: Epidermal growth factor receptor (Homo sapiens) (UniProt P00533); assay: Inhibition of recombinant human EGFR (696 to end residues) at 10 uM using poly(Glu, Tyr) as substrate measured after 40 mins in presence of [gamma33P]ATP by scintillation counting method relative to control
# [18] = biological target: Cyclin-dependent kinase 14/Cyclin-Y (Homo sapiens) (UniProt O94921+Q8ND76); assay: Inhibition of human CDK14/cyclinY at 10 uM by radiometric assay relative to control; format: protein-complex assay
# [19] = GSH reactivity in PBS assessed as GSH adduct formation at 1 mM after 8 hrs by UPLC-MS analysis; format: physicochemical; details: buffer, 1000 µM
# [20] = biological target: Activated CDC42 kinase 1 (Homo sapiens) (UniProt Q07912); assay: Inhibition of human ACK1 (1 to 389 residues) at 10 uM using EFPIYDFLPAKKK as substrate after 40 mins in presence of [gamma33P]ATP by scintillation counting method relative to control
# [21] = biological target: Tyrosine-protein kinase HCK (Homo sapiens) (UniProt P08631); assay: Inhibition of recombinant human Hck activated (230 to 497 residues) at 10 uM using GGMEDIYFEFMGGKKK as substrate after 40 mins in presence of [gamma33P]ATP by scintillation counting method relative to control
# [22] = biological target: Mitogen-activated protein kinase kinase kinase 10 (Homo sapiens) (UniProt Q02779); assay: Inhibition of recombinant human MLK2 (1 to 449 residues) at 10 uM using myelin basic protein as substrate measured after 40 mins in presence of [gamma33P]ATP by scintillation counting method relative to control
# [23] = biological target: Death-associated protein kinase 2 (Homo sapiens) (UniProt Q9UIK4); assay: Inhibition of full-length recombinant human DAPK2 at 10 uM using calmodulin as substrate after 40 mins by in presence of [gamma33P]ATP by scintillation counting method relative to control
# [24] = biological target: Serine-protein kinase ATM (Homo sapiens) (UniProt Q13315); assay: Inhibition of recombinant full-length human ATM at 10 uM using GST-cMyc-p53 as substrate measured after 40 mins by EIA method relative to control
compound,measurement,setting,value
C=CS(=O)(=O)Nc1ccc(Cc2ccc3ccccc3c2)cc1,inhibition,[1],2%
same,inhibition,[2],-10%
same,Activity,[3],inactive
same,inhibition,[4],13%
same,inhibition,[5],-1%
same,inhibition,[6],-4%
same,inhibition,[7],1%
same,inhibition,[8],9%
same,inhibition,[9],7%
same,inhibition,[10],7%
same,inhibition,[11],22%
same,inhibition,[12],-4%
same,inhibition,[13],11%
same,inhibition,[14],13%
same,Activity,[15],Active
same,inhibition,[16],2%
same,inhibition,[17],13%
same,inhibition,[18],1%
same,Activity,[19],Not Active
same,inhibition,[20],10%
same,inhibition,[21],3%
same,inhibition,[22],2%
same,inhibition,[23],-7%
same,inhibition,[24],2%
